Results on 17 compounds are retold here after paper PMC6273226, “New Isoxazolidine-Conjugates of Quinazolinones—Synthesis, Antiviral and Cytostatic Activity” (Molecules, 2016).

For one data set, the system named is murine leukemia L1210. Briefly: Cytostatic activity, inhibition of L1210 cell proliferation. The class given is cell-based. As to conditions: Mus musculus, L1210, 48 h, read-out: IC50 L1210. As to the method: (§1) The 50% cytostatic inhibitory concentration (IC50) causing a 50% decrease in cell proliferation was determined against murine leukemia L1210, human lymphocyte CEM, human cervix carcinoma HeLa and immortalized human dermal microvacsular endothelial cells (HMEC-1).
(§2) Murine leukemia (L1210), human T-lymphocyte (CEM), human cervix carcinoma (HeLa) and immortalized human dermal microvascular endothelial cells (HMEC-1) were suspended at 300,000–500,000 cells/mL of culture medium, and 100 μL of a cell suspension was added to 100 μL of an appropriate dilution of the test compounds in 200 μL-wells of 96-well microtiter plates. After incubation at 37 °C for two (L1210), three (CEM) or four (HeLa) days, the cell number was determined using a Coulter counter. The IC50 was defined as the compound concentration required to inhibit cell proliferation by 50%.

The test system of data set [1] is immortalized human dermal microvascular endothelial cells (HMEC-1). Briefly: Cytostatic activity, inhibition of HMEC-1 cell proliferation. It counts as cell-based. As to conditions: inhibition of cell proliferation by 50%. As to the method: as §1, §2
The subject of data set [2] is human cervix carcinoma (HeLa). Briefly: Cytostatic activity, inhibition of HeLa cell proliferation. The class given is cell-based. As to conditions: 96 h, read-out: IC50 HeLa. The method, then:
as §1, §2

The subject of another data set is human T-lymphocyte (CEM). Description: Cytostatic activity, inhibition of CEM cell proliferation. It counts as cell-based. As to conditions: 72 h, read-out: IC50 CEM. The method, then: as §1, §2
The subject of data set [3] is L1210, CEM, HeLa and HMEC-1 cells. Briefly: Cytostatic activity against the tested cell lines (L1210, CEM, HeLa, HMEC-1), summarised in text. The class given is cell-based. As to conditions: for inhibition of cell proliferation at the highest tested concentration: highest tested concentration 250 μM, L1210, CEM. As to the method: as §1, §2
Data set [4] has as its system human cytomegalovirus Davis strain. Briefly: Antiviral activity against human cytomegalovirus Davis strain in HEL cell cultures. The class given is cell-based. The conditions noted are these: Human betaherpesvirus 5.
In data set [5] the test system is human cytomegalovirus AD-169 strain. Description: Antiviral activity against human cytomegalovirus AD-169 strain in HEL cell cultures. It counts as cell-based. The conditions noted are these: Human betaherpesvirus 5, AD169.
The test system of the next data set is human cytomegalovirus. Description: Antiviral activity against human cytomegalovirus, strain not given (AD-169 and Davis). It counts as cell-based. As to conditions: Human betaherpesvirus 5; range given for four compounds, strain not specified.
For the next data set, the system named is TK- VZV 07-1 strain. Briefly: microbe, parasite or virus in culture. It counts as cell-based, varicella-zoster virus. As to conditions: for EC50: Human alphaherpesvirus 3, HEL, read-out: Antiviral Activity EC50 TK- VZV Strain; for activity toward TK- VZV strain: result in words.
In the next data set the test system is TK+ VZV Oka strain. Description: microbe, parasite or virus in culture. As to conditions: Human alphaherpesvirus 3, HEL, read-out: Antiviral Activity EC50 TK+ VZV Strain. It counts as cell-based, varicella-zoster virus.
Data set [6] has as its system human embryonic lung (HEL) cells. As to conditions: for Cytotoxicity Cell Morphology MCC: HEL cell cultures, minimum cytotoxic concentration; for cytotoxicity toward uninfected cells: at concentration up to 100 μM.
The subject of a further data set is influenza A virus. The arrangement: method as in PMID 26017319. As to conditions: ref [34]; cited from earlier work.

Structures are written as SMILES. Like-named read-outs stand apart in the source and are kept apart here.

Broadly, the IC50 is the concentration at which inhibition is half-maximal. With `CCOP(=O)(OCC)[C@H]1C[C@H](c2nc3ccccc3c(=O)[nH]2)ON1C` (relative stereo) [trans-11a, Diethyl trans-(2-methyl-5-(4-oxo-3,4-dihydroquinazolin-2-yl)isoxazolidin-3-yl)phosphonate], the 50% inhibitory concentration (IC50) (in the data set on murine leukemia L1210; in data set [1]; in [2]; in the data set with human T-lymphocyte (CEM)) was greater than 250 µM throughout. Besides, the “inhibition of cell proliferation at the highest tested concentration” value in [3] is “did not inhibit cell proliferation”.

For orientation: EC50 means the concentration needed to bring the measured effect to its halfway point. `CCOP(=O)(OCC)[C@H]1C[C@H](c2nc3ccccc3c(=O)n2Cc2ccccc2)ON1C` (relative stereo) [trans-11b/cis-11b (90:10), Diethyl trans-(5-(3-benzyl-4-oxo-3,4-dihydroquinazolin-2-yl)-2-methylisoxazolidin-3-yl)phosphonate]: the IC50 in the data set with murine leukemia L1210 came out at 49 ± 23 µM; in data set [1], 83 ± 16 µM; in data set [2] it was 82 ± 5 µM; with human T-lymphocyte (CEM), 28 ± 4 µM. For the same compound, the EC50 in data set [4] was greater than 20 µM; in [5], 44.7 µM; with human cytomegalovirus, 27 to 45 µM.

Turning to `CCOP(=O)(OCC)[C@H]1C[C@H](c2nc3ccccc3c(=O)n2Cc2ccccc2[N+](=O)[O-])ON1C` (relative stereo) [trans-11c, Diethyl trans-(2-methyl-5-(3-(2-nitrobenzyl)-4-oxo-3,4-dihydroquinazolin-2-yl)isoxazolidin-3-yl)-phosphonate], the 50% effective concentration (EC50) is 100 µM in the data set with TK- VZV 07-1 strain; 44.7 µM in data set [4]; greater than 100 µM in data set [5]; 27 to 45 µM with human cytomegalovirus; 46.5 µM in the data set on TK+ VZV Oka strain. For the same compound, the IC50 in the data set with murine leukemia L1210 worked out at 87 ± 22 µM; in data set [1], 92 ± 1 µM; in data set [2] it was 97 µM; in the data set on human T-lymphocyte (CEM), 76 ± 9 µM. The “Cytotoxicity Cell Morphology MCC” value in data set [6] (Table 2 (VZV)) is reported as greater than 100 μM.

On to `CCOP(=O)(OCC)[C@H]1C[C@H](c2nc3ccccc3c(=O)n2Cc2cccc([N+](=O)[O-])c2)ON1C` (relative stereo) [trans-11d/cis-11d (90:10), Diethyl trans-(2-methyl-5-(3-(3-nitrobenzyl)-4-oxo-3,4-dihydroquinazolin-2-yl)isoxazolidin-3-yl)-phosphonate], for which the concentration for half-maximal inhibition (IC50) in the data set on murine leukemia L1210 was 28 ± 11 µM; in [1] it was 58 µM; in data set [2], 50 ± 4 µM; with human T-lymphocyte (CEM) it was 21 ± 4 µM.

As to `CCOP(=O)(OCC)[C@H]1C[C@H](c2nc3ccccc3c(=O)n2Cc2ccc([N+](=O)[O-])cc2)ON1C` (relative stereo) [trans-11e/cis-11e (90:10), Diethyl trans-(2-methyl-5-(3-(4-nitrobenzyl)-4-oxo-3,4-dihydroquinazolin-2-yl)isoxazolidin-3-yl)-phosphonate], the EC50 is 42.9 µM in the data set with TK- VZV 07-1 strain; 20 µM in data set [4]; 44.7 µM in data set [5]; 27 to 45 µM with human cytomegalovirus; 34.2 µM with TK+ VZV Oka strain. The 50% inhibitory concentration (IC50) stood at 59 ± 32 µM with murine leukemia L1210, 102 ± 3 µM in [1], 76 ± 4 µM in data set [2] and 34 ± 12 µM in the data set on human T-lymphocyte (CEM). The “Cytotoxicity Cell Morphology MCC” value in [6] (Table 2 (VZV)) is 100 μM.

On to `CCOP(=O)(OCC)[C@H]1C[C@H](c2nc3ccccc3c(=O)n2Cc2ccccc2F)ON1C` (relative stereo) [trans-11f/cis-11f (90:10), Diethyl trans-(5-(3-(2-fluorobenzyl)-4-oxo-3,4-dihydroquinazolin-2-yl)-2-methylisoxazolidin-3-yl)-phosphonate], for which the EC50 in the data set on TK- VZV 07-1 strain is greater than 20 µM; in the data set with TK+ VZV Oka strain, 6.84 µM. Moreover, the “activity toward TK- VZV strain” value in the data set with TK- VZV 07-1 strain was “no activity”. Also, the IC50 was determined as 33 ± 7 µM with murine leukemia L1210, 77 µM in data set [1], 76 ± 11 µM in data set [2] and 29 ± 13 µM with human T-lymphocyte (CEM). The “Cytotoxicity Cell Morphology MCC” value in [6] (Table 2 (VZV)) is 100 μM. Further, the “cytotoxicity toward uninfected cells” value in data set [6] is “without exhibiting cytotoxicity”.

As for `CCOP(=O)(OCC)[C@H]1C[C@H](c2nc3ccccc3c(=O)n2Cc2cccc(F)c2)ON1C` (relative stereo) [trans-11g, Diethyl trans-(5-(3-(3-fluorobenzyl)-4-oxo-3,4-dihydroquinazolin-2-yl)-2-methylisoxazolidin-3-yl)-phosphonate], the IC50 with murine leukemia L1210 was found to be 35 ± 12 µM; in [1] it was 74 ± 3 µM; in [2], 62 ± 9 µM; with human T-lymphocyte (CEM), 26 ± 6 µM. The EC50 in data set [4] is 27.6 µM; in data set [5] it was greater than 100 µM; in the data set with human cytomegalovirus, 27 to 45 µM.

As for `CCOP(=O)(OCC)[C@H]1C[C@H](c2nc3ccccc3c(=O)n2Cc2ccc(F)cc2)ON1C` (relative stereo) [trans-11h, Diethyl trans-(5-(3-(4-fluorobenzyl)-4-oxo-3,4-dihydroquinazolin-2-yl)-2-methylisoxazolidin-3-yl)-phosphonate], the EC50 with TK- VZV 07-1 strain was greater than 20 µM; in the data set on TK+ VZV Oka strain, 15.3 µM. In addition, in the data set with TK- VZV 07-1 strain, the “activity toward TK- VZV strain” value is listed as “no activity”. For the same compound, the IC50 in the data set with murine leukemia L1210 came to 26 ± 1 µM; in data set [1] it was 78 ± 1 µM; in [2], 58 ± 5 µM; in the data set with human T-lymphocyte (CEM), 30 ± 12 µM. For the same compound, in data set [6] (Table 2 (VZV)), the “Cytotoxicity Cell Morphology MCC” value was 100 μM. In data set [6], the “cytotoxicity toward uninfected cells” value is given as “without exhibiting cytotoxicity”.

For `CCOP(=O)(OCC)[C@H]1C[C@H](c2nc3ccccc3c(=O)n2Cc2ccc(F)cc2F)ON1C` (relative stereo) [trans-11i/cis-11i (97:3), Diethyl trans-(5-(3-(2,4-difluorobenzyl)-4-oxo-3,4-dihydroquinazolin-2-yl)-2-methylisoxazolidin-3-yl)-phosphonate], the concentration giving a half-maximal response (EC50) in the data set on TK- VZV 07-1 strain is greater than 20 µM; in the data set with TK+ VZV Oka strain it was 9.44 µM. Further, in the data set with TK- VZV 07-1 strain, the “activity toward TK- VZV strain” value was “no activity”. Besides, the IC50 in the data set on murine leukemia L1210 came out at 26 ± 2 µM; in data set [1], 67 ± 4 µM; in [2] it was 55 ± 10 µM; with human T-lymphocyte (CEM), 24 ± 8 µM. Also, the “Cytotoxicity Cell Morphology MCC” value in [6] (Table 2 (VZV)) was 100 μM. Moreover, in data set [6], the “cytotoxicity toward uninfected cells” value is “without exhibiting cytotoxicity”.

On to `CCOP(=O)(OCC)[C@H]1C[C@H](c2nc3ccccc3c(=O)n2C)ON1C` (relative stereo) [trans-11j, Diethyl trans-(2-methyl-5-(3-methyl-4-oxo-3,4-dihydroquinazolin-2-yl)isoxazolidin-3-yl)phosphonate], for which the IC50 (with murine leukemia L1210; in data set [1]; in data set [2]; in the data set on human T-lymphocyte (CEM)) was greater than 250 µM each time. Also, the “inhibition of cell proliferation at the highest tested concentration” value in data set [3] was “did not inhibit cell proliferation”.

With `CCOP(=O)(OCC)[C@H]1C[C@H](c2nc3ccccc3c(=O)n2CC)ON1C` (relative stereo) [trans-11k/cis-11k (97:3), Diethyl trans-(5-(3-ethyl-4-oxo-3,4-dihydroquinazolin-2-yl)-2-methylisoxazolidin-3-yl)phosphonate], the EC50 in the data set with TK- VZV 07-1 strain stood at 41.6 µM; in the data set on TK+ VZV Oka strain, 38.8 µM. Further, the IC50 with murine leukemia L1210 is 101 ± 17 µM; in data set [1] it was 86 ± 11 µM; in data set [2] it was 97 ± 10 µM; in the data set on human T-lymphocyte (CEM), 85 ± 13 µM; in data set [3] (range over L1210, CEM, read-out: IC50 towards the tested cell lines) it was 85 to 101 µM. The “Cytotoxicity Cell Morphology MCC” value in data set [6] (Table 2 (VZV)) is greater than 100 μM.

Consider `O=c1[nH]cc(F)c(=O)[nH]1` [5-Fluorouracil, reference compound], for which the half-maximal inhibitory concentration (IC50) in the data set on murine leukemia L1210 (inhibition of cell proliferation by 50%, two days incubation) turned out to be 0.33 ± 0.17 µM; in [2] (inhibition of cell proliferation by 50%, four days incubation), 0.54 ± 0.12 µM; in the data set on human T-lymphocyte (CEM) (inhibition of cell proliferation by 50%, three days incubation), 18 ± 5 µM.

For the compound `O=c1[nH]c(=O)n([C@H]2C[C@H](O)[C@@H](CO)O2)cc1/C=C/Br` [Brivudin, reference compound], the concentration for a half-maximal effect (EC50) with TK- VZV 07-1 strain came to 25.6 µM; in the data set on TK+ VZV Oka strain it was 0.019 µM. The “Cytotoxicity Cell Morphology MCC” value in data set [6] (Table 2 (VZV)) was greater than 100 μM.

With `Nc1ccn(C[C@@H](CO)OCP(=O)(O)O)c(=O)n1` [Cidofovir, reference compound], the 50% effective concentration (EC50) in data set [4] stood at 0.23 µM; in data set [5], 1.49 µM. Also, in data set [6] (Table 3 (HCMV)), the “Cytotoxicity Cell Morphology MCC” value is reported as greater than 300 μM.

For `O=c1[nH]c(-c2ccncc2)nc2ccccc12` [Compound 4], the “activity against influenza A virus” value with influenza A virus is “slight activity”.

Regarding `O=c1c2ccccc2nc(-c2ccncc2)n1CCCN1CCOCC1` [Compound 5], in the data set with influenza A virus, the “activity against influenza A virus” value is reported as “slight activity”.

For `Nc1nc(O)c2ncn(COC(CO)CO)c2n1` [Ganciclovir, reference compound], the EC50 in [4] turned out to be 0.63 µM; in [5] it was 10.5 µM. For the same compound, the “Cytotoxicity Cell Morphology MCC” value in [6] (Table 3 (HCMV)) was greater than 350 μM.
